From patent US9128088B2 (priority 2008, dated 2015)
Converted amounts (≈) assume the structure as drawn.

What was measured:
Experiment in all cases: microbe, parasite or virus in culture
M. bovis BCG = format: cell-based; conditions: Mycobacterium tuberculosis variant bovis BCG
M. tuberculosis H37Rv = format: cell-based; conditions: Mycobacterium tuberculosis
M. smegmatis mc^2155 = format: cell-based, Mycobacterium smegmatis; conditions: Mycolicibacterium smegmatis

For `NNC(=O)c1ccncc1` [Isoniazid, isoniazid], the MIC (M. bovis BCG) was 0.05 µg/mL (≈ 0.365 µM), the MIC (M. tuberculosis H37Rv) was 0.05 µg/mL (≈ 0.365 µM) and the MIC (M. smegmatis mc^2155) was 16 µg/mL (≈ 117 µM).
